Read-outs that look alike come from different tables or passages of the source.
Legend:
[1] = shown in studies (Geothermics 36 (2007) 348 - 361); cited from earlier work
[2] = OECD 301A, manufacturer safety data sheet, cited from earlier work
[3] = 302B; 28 d; Research report 200 24 233 UBA-FB 000298; cited from earlier work
[4] = 301D; 28 d; Research report 200 24 233 UBA-FB 000298; cited from earlier work
[5] = OECD 301B, manufacturer safety data sheet, cited from earlier work
[6] = Biodegradability, test method OECD 301 B; conditions: in-house measurement
Procedure: The biodegradability of the inventive composition and constituents thereof is determined according to the OECD Guidelines for Testing of Chemicals 301 and 311.
The corrosion inhibitor or, if more than one corrosion inhibitor is used, all corrosion inhibitors used have good biodegradability (are “readily degradable”) according to the respectively applicable test method OECD 301 A (for water-soluble corrosion inhibitors) or OECD 301 B (for sparingly water-soluble corrosion inhibitors), each in the version dated Jul. 17, 1992. Good biodegradability is defined in point 10 of OECD 301.

For `CC(O)CO` (centres unmarked) [1,2-propylene glycol], the Biodegradability [1] is listed as “good”, the Degradability ([2]; duration not given) is listed as over 70% and the Assessment of degradability [2] is listed as “good”.
For `c1ccc2[nH]nnc2c1` [Benzotriazole], the Degradability [3] is given as 12% (28 d) and the Degradability [4] is given as 0% (28 d).
In the case of `CC(C)CCCCCC(=O)O` [Inhibitor A, isononanoic acid], the Degradability ([5]; 25 d) is listed as “approx. 63%” and the Assessment of degradability [5] is listed as “moderately”.
For `CCCCC(CC)C(=O)O` (centres unmarked) [Inhibitor B, 2-ethylhexanoic acid], the Degradability ([5]; 25 d) is given as “approx. 90%” and the Assessment of degradability [5] is given as “good”.
In the case of `O=C(O)CCCCCCCCC(=O)O` [Inhibitor C, sebacic acid], the Degradability ([6]; 25 d) is reported as >80% (25 d) and the Assessment of degradability [6] is reported as “good”.
In the case of `CC(C)CCCCCC(=O)NCCCCCC(=O)O` [Inhibitor X], the Degradability ([5]; 15 d) is listed as >90% (15 d) and the Assessment of degradability [5] is listed as “good”.
For `OCCO` [ethylene glycol], the Biodegradability [1] is given as “good”.

— patent publication US20120319032A1, “Biodegradable, Frost Proof Heat-Transfer Fluid, Use Thereof In Near-Surface Geothermal Installations, And A Concentrate For Preparing Same” (priority 2010, published 2012)
